Drawing on paper PMC6900016, “Synthesis of Indomorphan Pseudo‐Natural Product Inhibitors of Glucose Transporters GLUT‐1 and ‐3” (Angewandte Chemie (International Ed. in English), 2019), this text covers IC50 for 18 compounds.

A value given as a limit tells only on which side of the number the result lay.

The test system of the assay is HCT116. The assay can be described thus: cells. Further details: 2-deoxyglucose uptake inhibition, semi-automated resazurin/diaphorase fluorescence read-out of 2DG6P. The settings on record: Homo sapiens, HCT-116, 0.5 h; 2DG uptake. On the procedure:
Resazurin-based 2DG uptake assay (semi-automated high throughput) All buffers, reagents and steps were identical with those described for the manual screening Washing and [compound left out] addition steps were done using an automated cell washer or a multidrop device, respectively. Screening was performed in a 384-well plates. 15,000 HCT116 cells/well seeded into 384-well black-walled, clear bottomed plates (CellBIND, Corning) and incubated overnight. Compounds were added at 30 µM (final concentration for screening or serial dilutions staring from 30 µM for IC50 determinations) from DMSO stocks using the acoustic nanoliter dispenser ECHO 520. Fluorescence intensity was read from the bottom with a SpectraMax Paradigm Multi-Mode Microplate Reader (Molecular devices) using SUPPORTING INFORMATION 259 control (which was set to 100 %) and cells without 2DG (set to 0 %) using Graph Pad Prism 5 or 6 software and IC50 values were determined using a four-parameter fit. The observed difference in the obtained IC50 values for Glupin in the automated screening vs. manually performed assay is most likely attributed to the minituarization that is required for high-troughput screening and usually requires different plate format (384 vs. 96-well plates) and different cell number. In this case, the automated assay was performed in 384-well plates (vs. 96-well plates for the manual assay) with 15,000 cells per well (vs. 40,000 cells per well in the 96-well plates). For kinetic measurements, 15,000 cells were seeded into black CellBIND 384-well plates (Corning) and allowed to attach overnight. Then, the plates were washed 3X with KRB buffer containing 0.1%BSA and treated with different concentrations of 2DG (0-60mM) and Glupin (0-1µM) for 30s to 30min. The uptake was determined using the resazurin/diaphorase system as described above. 2DG uptake was stopped by aspirating the 2DG solution followed by quick wash with ice-cold KRB buffer (0.1 % BSA). Km and Vmax were determined by fitting the data according to Michaelis-Menten using non-linear fitting. The glucose uptake assay monitored the inhibition of 2‐deoxyglucose (2DG) uptake as described by Yamamoto et al.25 Briefly, 2DG uptake is determined by quantification of the 2DG‐6‐phosphate (2DG6P) that accumulates inside the cells by using the diaphorase‐resazurin/‐resorufin system (see Figure S7 a).
Usually IC50 stands for the concentration that inhibits the measured activity by half. With `CCCOC(=O)Cn1c2c(c3ccccc31)CC1CC2C(OC)CN1C(=O)c1cccnc1SC` (racemic) [5l, (±)-Propyl 2-(-5-methoxy-3-(2-(methylthio)nicotinoyl)-3,4,5,6-tetrahydro-1H-2,6-methanoazocino[5,4-b]indol-7(2H)-yl)acetate], the IC50 was 93 ± 35 nM.

As to `COC1CN(C(=O)c2cccnc2SC)C2Cc3c(n(CC(=O)OC(C)(C)C)c4ccccc34)C1C2` (racemic) [5k, (±)-tert-butyl 2-(5-methoxy-3-(2-(methylthio)nicotinoyl)-3,4,5,6-tetrahydro-1H-2,6-methanoazocino[5,4-b]indol-7(2H)-yl)acetate], the IC50 was 190 ± 60 nM.

Take `COC(=O)Cn1c2c(c3ccccc31)CC1CC2C(OC)CN1C(=O)c1cccnc1SC` (racemic) [5ad, (±)-methyl 2-(5-methoxy-3-(2-(methylthio)nicotinoyl)-3,4,5,6-tetrahydro-1H-2,6-methanoazocino[5,4-b]indol-7(2H)-yl)acetate]: the IC50 was found to be 89 ± 32 nM.

Turning to `COC1CN(C(=O)c2cccnc2SC)C2Cc3c([nH]c4ccccc34)C1C2` (racemic) [5j, (±)-(5-methoxy-1,2,4,5,6,7-hexahydro-3H-2,6-methanoazocino[5,4-b]indol-3-yl)(2-(methylthio)pyridin-3-yl)methanone], the IC50 was over 30000 nM.

With `CNC(=O)Cn1c2c(c3ccccc31)CC1CC2C(OC)CN1C(=O)Cc1cccs1` (stereo not drawn) [5au], the IC50 came out at 16000 ± 1000 nM.

Regarding `CCOC(=O)Cn1c2c(c3cc(C(=O)N4CCOCC4)ccc31)CC1CC2C(OC)CN1C(=O)c1cccnc1SC` (racemic) [5ab, (±)-Ethyl 2-(5-methoxy-3-(2-(methylthio)nicotinoyl)-10-(morpholine-4-carbonyl)-1,2,3,4,5,6-hexahydro-7H-2,6-methanoazocino[5,4-b]indol-7-yl)acetate], the IC50 was over 30000 nM.

For the compound `CCOC(=O)Cn1c2c(c3ccccc31)CC1CC2C(OC)CN1C(=O)c1cccnc1SC` (racemic) [(±)-Glupin], the concentration for half-maximal inhibition (IC50) turned out to be 55 ± 17 nM.

For `CCOC(=O)Cn1c2c(c3ccccc31)CC1CC2C(OC)CN1C(=O)c1cccnc1Cl` (racemic) [5af, (±)-Ethyl 2-(3-(2-chloronicotinoyl)-5-methoxy-1,2,3,4,5,6-hexahydro-7H-2,6-methanoazocino[5,4-b]indol-7-yl)acetate], the IC50 came out at 93 ± 41 nM.

Consider `CCCOC1CN(C(=O)c2cccnc2SC)C2Cc3c(n(CC(=O)OCC)c4ccccc34)C1C2` (racemic) [5d, (±)-Ethyl 2-(3-(2-(methylthio)nicotinoyl)-5-propoxy-1,2,3,4,5,6-hexahydro-7H-2,6-methanoazocino[5,4-b]indol-7-yl)acetate], for which the IC50 was found to be 87 ± 15 nM.

With `CCOC(=O)Cn1c2c(c3ccccc31)CC1CC2C(OC)CN1C(=O)N1CCOCC1` (stereo not drawn) [5r], the IC50 stood at 3160 nM.

On to `CCOC(=O)Cn1c2c(c3ccccc31)CC1CC2C(OC)CN1C(=O)c1cnccn1` (stereo not drawn) [5aw], for which the IC50 stood at 2000 ± 400 nM.

As to `CCOC(=O)Cn1c2c(c3cccc(Cl)c31)CC1CC2C(OC)CN1C(=O)c1cccnc1SC` (racemic) [5h, (±)-Ethyl 2-(8-chloro-5-methoxy-3-(2-(methylthio)nicotinoyl)-1,2,3,4,5,6-hexahydro-7H-2,6-methanoazocino[5,4-b]indol-7-yl)acetate], the IC50 is 210 ± 90 nM.

On to `CCOC(=O)Cn1c2c(c3cc(O)ccc31)CC1CC2C(OC)CN1C(=O)c1cccnc1SC` (racemic) [5f, (±)-Ethyl 2-(-10-hydroxy-5-methoxy-3-(2-(methylthio)nicotinoyl)-1,2,3,4,5,6-hexahydro-7H-2,6-methanoazocino[5,4-b]indol-7-yl)acetate], for which the concentration for half-maximal inhibition (IC50) turned out to be 100 ± 60 nM.

As for `CCOC(=O)n1c2c(c3ccccc31)CC1CC2C(OC)CN1C(=O)c1cccnc1SC` (racemic) [5p, (±)-ethyl 5-methoxy-3-(2-(methylthio)nicotinoyl)-3,4,5,6-tetrahydro-1H-2,6-methanoazocino[5,4-b]indole-7(2H)-carboxylate], the IC50 worked out at 28000 ± 2000 nM.

As to `CCOC(=O)Cn1c2c(c3ccccc31)CC1CC2C(OC)CN1C(=O)c1cccnc1NC(=O)C(C)(C)C` (racemic) [5am, (±)-Ethyl 2-(5-methoxy-3-(2-pivalamidonicotinoyl)-1,2,3,4,5,6-hexahydro-7H-2,6-methanoazocino[5,4-b]indol-7-yl)acetate], the half-inhibitory concentration (IC50) is over 30000 nM.

With `CCOC(=O)Cn1c2c(c3ccccc31)CC1CC2C(OC)CN1C(=O)c1c(C(F)(F)F)ccnc1SC` (racemic) [5x, (±)-Ethyl 2-(5-methoxy-3-(2-(methylthio)-4-(trifluoromethyl)nicotinoyl)-1,2,3,4,5,6-hexahydro-7H-2,6-methanoazocino[5,4-b]indol-7-yl)acetate], the concentration for half-maximal inhibition (IC50) turned out to be 6700 ± 1600 nM.

In the case of `CNC(=O)Cn1c2c(c3ccccc31)CC1CC2C(OC)CN1C(=O)Nc1cccc(C(F)(F)F)c1` (stereo not drawn) [5az], the IC50 was over 30000 nM.

With `CNC(=O)Cn1c2c(c3ccccc31)CC1CC2C(OC)CN1C(=O)c1cccnc1SC` (stereo not drawn) [5m], the IC50 was determined as 1450 ± 600 nM.
